Like-named read-outs stand apart in the source and are kept apart here.
Legend:
Type in all cases: cell-based
MRC-5 cell line = experiment: Cell viability assay (cytotoxicity) for MRC-5 cell line; details: for IC50: Homo sapiens, MRC5, 120 h
Method: 4. Cell Viability Assay for MRC-5 Cell Line
(1) Culture of MRC-5 Cell Line
Passage of cultured cells was maintained within P15.
(2) Treatment of Compounds of the Present Invention
Then, it was cultured in 37° C.
(3) Cytotoxicity Experiment
CO2 incubator for 4 hours.
Cell Viability Assay for MRC-5 cell line

NCI-H526 cell line = experiment: Cell viability assay for H526 cell line; details: Homo sapiens, NCI-H526, 120 h; H526 cells, 5 days, EZ-Cytox, 3000 nM to 0.46 nM
Method: 3. Cell Viability Assay for H526 Cell Line
(1) Culture of NCI-H526 Cell Line
(2) Treatment of Compounds of the Present Invention and Method of Cell Viability Assay
After treating the compound to each well to make the total volume of 200 μL, it was cultured in a CO2 incubator (Thermo Fisher Science, Cat. No. 4111) for 5 days.
The absorbance of the completely cultured sample was measured by setting the wavelength of a plate reader (BMG Labtech, CLARIOstar Plus) to […], and was measured after shaking for 3 minutes in a plate reader before measurement.
In Table 3, Activity represents IC50 value of each Exemplary Compound treatment group to H526 cell line (A: <30 nM, B: <50 nM, C: <100 nM, D: <200 nM, E: <400 nM).

PLK1 = molecular target: T1, PLK1 (Homo sapiens, UniProt P53350); experiment: Luciferase assay for PLK1 in HeLa LgBit (Plk1-HiBit KI) cell line; details: 300 nM compound, luminescence after 9 hours, read-out: Activity: ratio of the luminescense value of compound treatment group to DMSO treatment group
T1 construct: endogenous in cells; host or cells: HeLa LgBit (Plk1-HiBit KI): HeLa cells stably expressing LgBit, with HiBit knocked into the endogenous Plk1 locus by CRISPR/Cas9
T1 sequence (P53350 whole entry): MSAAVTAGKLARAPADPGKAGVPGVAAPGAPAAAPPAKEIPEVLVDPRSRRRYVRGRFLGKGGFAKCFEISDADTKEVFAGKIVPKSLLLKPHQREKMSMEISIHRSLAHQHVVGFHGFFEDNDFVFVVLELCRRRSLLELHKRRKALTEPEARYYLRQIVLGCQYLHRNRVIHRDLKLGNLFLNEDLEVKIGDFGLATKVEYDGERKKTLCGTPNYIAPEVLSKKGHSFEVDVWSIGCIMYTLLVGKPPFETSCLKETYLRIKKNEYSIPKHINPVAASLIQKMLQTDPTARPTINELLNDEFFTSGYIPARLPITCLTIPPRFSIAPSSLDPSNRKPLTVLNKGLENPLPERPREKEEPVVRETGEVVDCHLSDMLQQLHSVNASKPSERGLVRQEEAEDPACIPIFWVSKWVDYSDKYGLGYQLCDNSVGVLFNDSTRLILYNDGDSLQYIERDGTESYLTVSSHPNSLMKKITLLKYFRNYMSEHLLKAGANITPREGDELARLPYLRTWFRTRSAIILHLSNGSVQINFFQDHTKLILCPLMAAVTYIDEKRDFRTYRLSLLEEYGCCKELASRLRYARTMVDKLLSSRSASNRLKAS
Method: 2. Luciferase Assay for PLK1
(1) Preparation and Culture of HeLa LgBit (Plk1-HiBit KI) Cell Line
A HeLa cell line in which the LgBit vector was transfected and expressed stably was prepared. Then, after constructing gRNA and donor to express the HiBit amino acid sequence behind the C-terminal of the Plk1 gene, which was inherent in the cell, it was inserted into the cell together with a vector capable of expressing CRISPR/Cas9. Only the cells in which the insertion was completed and knock-in had progressed were selected, sub-cultured and used.
(2) Treatment of Compounds of the Present Invention and Method of Luciferase Assay
In the case of HeLa LgBit (Plk1-HiBit KI), the compounds were treated after being released after thymidine block, and the process was as follows. Thymidine (Sigma-Aldrich Cat. No. T9250-5G) was completely dissolved in DW and used in the experiment. For thymidine block, the products were treated with 2 mM of thymidine and then incubated for 24 hours. For release and chemical treatment, the medium was suctioned and washed with 1×PBS. TrypLE™ was added and incubated in 37° C. CO2 incubator for 5 min. Cells neutralized by adding complete media were counted through a counter. For each well of a 96-well culture plate (SPL), 3.3×10^4 cells and a total medium volume of 150 μL were seeded and incubated in a CO2 incubator.
Each cell line was incubated in a CO2 incubator for 18 hours, and Endurazine was added to each well to make up 4% of the total volume. After adding the compound of the present invention in a 96-well white plate (SPL) to a concentration of 300 nM, the wavelength of the plate reader (BMG Labtech, CLARIOstar Plus) was set to […], and then the luminescence was tracked in real time.
In Table 2, Activity represents the ratio of the luminescense value of each Exemplary Compound treatment group to DMSO treatment group (+++: <0.3, ++<0.6, +<0.7).

[1] = read-out: Activity: IC50 value to MRC-5 cell line (Comparative Compounds)
[2] = MRC-5 normal cell line, 5 days, EZ-Cytox, 10000 nM to 1.52 nM, read-out: Activity: IC50 value to MRC-5 cell line (Exemplary Compounds)

With `CC[C@@H]1C(=O)N(C)c2cnc(Nc3ccc(C(=O)NCCOCCOCCNc4cccc5c4C(=O)N(C4CCC(=O)NC4=O)C5=O)cc3OC)nc2N1C1CCCC1` (stereo partly shown) [Comparative Compound 1, reference compound] the IC50 (MRC-5 cell line; MRC-5 normal cell line, 5 days, EZ-Cytox, 10000 nM to 1.52 nM, read-out: Activity: IC50 value to MRC-5 cell line (Comparative Compounds)) was 107 nM and the “cytotoxicity in normal cell line” value (MRC-5 cell line; MRC-5 normal cell line, statement in words) was “high level of cytotoxicity”.

With `CC[C@@H]1C(=O)N(C)c2cnc(Nc3ccc(C(=O)NC4CCN(C)CC4)cc3OC)nc2N1C1CCCC1` [Comparative Compound 2, BI2536, reference compound] the IC50 (MRC-5 cell line; [1]) was 3090 nM.

Compound `CC[C@@H]1C(=O)N(C)c2cnc(Nc3ccc(C(=O)N[C@H]4CC[C@H](N5CCN(CC6CC6)CC5)CC4)cc3OC)nc2N1C(C)C` [Comparative Compound 3, Volasertib, reference compound] has an IC50 (MRC-5 cell line; [1]) of 2940 nM.

`COc1cc(C(=O)NC2CCN(C)CC2)c(F)cc1Nc1ncc2c(n1)N(C1CCCC1)CC(F)(F)C(=O)N2C` [Comparative Compound 4, TAK960, reference compound] showed an IC50 (MRC-5 cell line; [1]) of 9150 nM.

`COc1cc(C(=O)NC2CCN(CCOCCOCCOCCOCCNc3ccc(C4CCC(=O)NC4=O)cc3)CC2)c(F)cc1Nc1ncc2c(n1)N(C1CCCC1)CC(F)(F)C(=O)N2C` (stereo not shown) [Compound 1, 4-((9-cyclopentyl-7,7-difluoro-5-methyl-6-oxo-6,7,8,9-tetrahydro-5H-pyrimido[4,5-b][1,4]diazepin-2-yl)amino)-N-(1-(14-((4-(2,6-dioxopiperidin-3-yl)phenyl)amino)-3,6,9,12-tetraoxatetradecyl)piperidin-4-yl)-2-fluoro-5-methoxybenzamide] showed an IC50 (NCI-H526 cell line) of less than 50 nM, a remaining activity at 0.3 µM (PLK1) of less than 60% and an IC50 (MRC-5 cell line; [2]) of 25600 nM.

For `COc1cc(C(=O)NC2CCN(C(=O)CCCOc3cccc(C4CCC(=O)NC4=O)c3)CC2)c(F)cc1Nc1ncc2c(n1)N(C1CCCC1)CC(F)(F)C(=O)N2C` (stereo not shown) [Compound 2, 4-((9-cyclopentyl-7,7-difluoro-5-methyl-6-oxo-6,7,8,9-tetrahydro-5H-pyrimido[4,5-b][1,4]diazepin-2-yl)amino)-N-(1-(4-(3-(2,6-dioxopiperidin-3-yl)phenoxy)butanoyl)piperidin-4-yl)-2-fluoro-5-methoxybenzamide], the IC50 (NCI-H526 cell line) was less than 50 nM, the remaining activity at 0.3 µM (PLK1) was less than 60% and the IC50 (MRC-5 cell line; [2]) was greater than 10000 nM.

For `COc1cc(OCC2CC3(CCN(CC4CCN(c5ccc(C6CCC(=O)NC6=O)cc5F)CC4)CC3)C2)ccc1Nc1ncc2c(n1)N(C1CCCC1)CC(F)(F)C(=O)N2C` (stereo not shown) [Compound 17, 3-(4-(4-((2-((4-((9-cyclopentyl-7,7-difluoro-5-methyl-6-oxo-6,7,8,9-tetrahydro-5H-pyrimido[4,5-b][1,4]diazepin-2-yl)amino)-3-methoxyphenoxy)methyl)-7-azaspiro[3.5]nonan-7-yl)methyl)piperidin-1-yl)-3-fluorophenyl)piperidine-2,6-dione], the IC50 (NCI-H526 cell line) was less than 200 nM and the remaining activity at 0.3 µM (PLK1) was less than 30%.

Work on `COc1cc(C(=O)NN2CCC(N3CC4(CCN(c5ccc(C6CCC(=O)NC6=O)cc5F)CC4)C3)CC2)ccc1Nc1ncc2c(n1)N(C1CCCC1)CC(F)(F)C(=O)N2C` (stereo not shown) [Compound 18, 4-((9-cyclopentyl-7,7-difluoro-5-methyl-6-oxo-6,7,8,9-tetrahydro-5H-pyrimido[4,5-b][1,4]diazepin-2-yl)amino)-N-(4-(7-(4-(2,6-dioxopiperidin-3-yl)-2-fluorophenyl)-2,7-diazaspiro[3.5]nonan-2-yl)piperidin-1-yl)-3-methoxybenzamide] yielded an IC50 (NCI-H526 cell line) of less than 30 nM and a remaining activity at 0.3 µM (PLK1) of less than 60%.

In the case of `COc1cc(C(=O)NC2CC23CCN(CC2CCN(c4ccc(C5CCC(=O)NC5=O)cc4F)CC2)CC3)ccc1Nc1ncc2c(n1)N(C1CCCC1)CC(F)(F)C(=O)N2C` (stereo not shown) [Compound 23, 4-((9-cyclopentyl-7,7-difluoro-5-methyl-6-oxo-6,7,8,9-tetrahydro-5H-pyrimido[4,5-b][1,4]diazepin-2-yl)amino)-N-(6-((1-(4-(2,6-dioxopiperidin-3-yl)-2-fluorophenyl)piperidin-4-yl)methyl)-6-azaspiro[2.5]octan-1-yl)-3-methoxybenzamide], the IC50 (NCI-H526 cell line) is reported as less than 30 nM and the remaining activity at 0.3 µM (PLK1) is reported as less than 30%.

`COc1cc(C(=O)NC2CC3(CCN(CC4CCN(c5cccc(N6CCC(=O)NC6=O)c5)CC4)CC3)C2)ccc1Nc1ncc2c(n1)N(C1CCCC1)CC(F)(F)C(=O)N2C` [Compound 34, 4-((9-cyclopentyl-7,7-difluoro-5-methyl-6-oxo-6,7,8,9-tetrahydro-5H-pyrimido[4,5-b][1,4]diazepin-2-yl)amino)-N-(7-((1-(3-(2,4-dioxotetrahydropyrimidin-1(2H)-yl)phenyl)piperidin-4-yl)methyl)-7-azaspiro[3.5]nonan-2-yl)-3-methoxybenzamide] showed an IC50 (NCI-H526 cell line) of less than 30 nM and a remaining activity at 0.3 µM (PLK1) of less than 60%.

`COc1cc(C(=O)NC2CC3(CCN(CC4CCN(c5cccc(C6CCC(=O)NC6=O)c5)CC4)CC3)C2)ccc1Nc1ncc2c(n1)N(C1CCCC1)CC(F)(F)C(=O)N2C` (stereo not shown) [Compound 41, 4-((9-cyclopentyl-7,7-difluoro-5-methyl-6-oxo-6,7,8,9-tetrahydro-5H-pyrimido[4,5-b][1,4]diazepin-2-yl)amino)-N-(7-((1-(3-(2,6-dioxopiperidin-3-yl)phenyl)piperidin-4-yl)methyl)-7-azaspiro[3.5]nonan-2-yl)-3-methoxybenzamide] was tested, and the IC50 (NCI-H526 cell line) was less than 30 nM and the remaining activity at 0.3 µM (PLK1) was less than 60%.

`COc1cc(C(=O)NC2CCN(C3CN(c4ccc(C5CCC(=O)NC5=O)cc4F)C3)CC2)ccc1Nc1ncc2c(n1)N(C1CCCC1)CC(F)(F)C(=O)N2C` (stereo not shown) [Compound 42, 4-((9-cyclopentyl-7,7-difluoro-5-methyl-6-oxo-6,7,8,9-tetrahydro-5H-pyrimido[4,5-b][1,4]diazepin-2-yl)amino)-N-(1-(1-(4-(2,6-dioxopiperidin-3-yl)-2-fluorophenyl)azetidin-3-yl)piperidin-4-yl)-3-methoxybenzamide] gave an IC50 (NCI-H526 cell line) of less than 30 nM and a remaining activity at 0.3 µM (PLK1) of less than 30%.

`COc1cc(C(=O)NN2CCC(C3CN(c4ccc(C5CCC(=O)NC5=O)cc4F)C3)CC2)ccc1Nc1ncc2c(n1)N(C1CCCC1)CC(F)(F)C(=O)N2C` (stereo not shown) [Compound 43, 4-((9-cyclopentyl-7,7-difluoro-5-methyl-6-oxo-6,7,8,9-tetrahydro-5H-pyrimido[4,5-b][1,4]diazepin-2-yl)amino)-N-(4-(1-(4-(2,6-dioxopiperidin-3-yl)-2-fluorophenyl)azetidin-3-yl)piperidin-1-yl)-3-methoxybenzamide] gave an IC50 (NCI-H526 cell line) of less than 50 nM and a remaining activity at 0.3 µM (PLK1) of less than 60%.

For `COc1cc(C(=O)NN2CC3(CCN(CC4CCN(c5ccc(C6CCC(=O)NC6=O)cc5F)CC4)CC3)C2)ccc1Nc1ncc2c(n1)N(C1CCCC1)CC(F)(F)C(=O)N2C` (stereo not shown) [Compound 44], the IC50 (NCI-H526 cell line) was less than 30 nM and the remaining activity at 0.3 µM (PLK1) was less than 60%.

`COc1cc(C(=O)NC2CC3(CCN(C[C@@H]4CCN(c5ccc(C6CCC(=O)NC6=O)cc5F)C[C@@H]4F)CC3)C2)ccc1Nc1ncc2c(n1)N(C1CCCC1)CC(F)(F)C(=O)N2C` (stereo partly drawn) [Compound 46, −((9-cyclopentyl-7,7-difluoro-5-methyl-6-oxo-6,7,8,9-tetrahydro-5H-pyrimido[4,5-b][1,4]diazepin-2-yl)amino)-N-(7-(((3R,4S)-1-(4-(2,6-dioxopiperidin-3-yl)-2-fluorophenyl)-3-fluoropiperidin-4-yl)methyl)-7-azaspiro[3.5]nonan-2-yl)-3-methoxybenzamide] was tested, and the remaining activity at 0.3 µM (PLK1) was less than 30%.

From patent publication US11912710B2 (UPPTHERA, INC., priority 2021, dated 2024)
